In US20200024278A1, “COMPOSITION COMPRISING ANTIBIOTIC COMPOUND AND AN HETEROCYCLIC COMPOUND AND THEIR USE IN PREVENTING OR TREATING BACTERIAL INFECTIONS” (MUTABILIS, priority 2016, published 2020):

How the values were obtained:
Experiment in all cases: MIC, broth microdilution (CLSI), substance alone or ATB combined with compound at 4 or 8 μg/mL
[1] = test system: ECO 190317; assay type: cell-based, E. coli; settings: ECO 190317
Summary of the method: (§1)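 Broth microdilution; ca-MHB; 5·10^5 CFU/mL; 35° C, 16-20 h; compound alone or fixed 4/8 μg/mL with antibiotic series; endpoint = no visible growth.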

[2] = test system: KPN 6299; assay type: cell-based, K. pneumoniae
Summary of the method: as §1

[3] = test system: KPN BAA-1898; assay type: cell-based, K. pneumoniae; settings: KPN BAA-1898
Summary of the method: as §1

[4] = test system: KPN UFR42; assay type: cell-based, K. pneumoniae; settings: KPN UFR42
Summary of the method: as §1

[5] = test system: SAU 29213; assay type: cell-based, S. aureus; settings: SAU 29213
Summary of the method: as §1

[6] = test system: SPN 49619; assay type: cell-based, S. pneumoniae; settings: SPN 49619
Summary of the method: as §1

[7] = Klebsiella pneumoniae, antibiotic alone, read-out: MIC ATB alone

## NCC[C@H](O)C(=O)N[C@@H]1C[C@H](N)[C@@H](O[C@H]2O[C@H](CN)[C@@H](O)[C@H](O)[C@H]2O)[C@H](O)[C@H]1O[C@H]1O[C@H](CO)[C@@H](O)[C@H](N)[C@H]1O [AN, Amikacin, reference compound]
[1]; with Example 11 at 8 μg/ml
  MIC ATB combined with Example 11 @8 μg/ml: <0.031 µg/mL
[1]; with Example 12 at 8 μg/ml
  MIC ATB combined with Example 12 @8 μg/ml: <0.031 µg/mL
[1]; with Example 13 at 8 μg/ml
  MIC ATB combined with Example 13 @8 μg/ml: <0.031 µg/mL
[1]; with Example 14 at 8 μg/ml
  MIC ATB combined with Example 14 @8 μg/ml: <0.031 µg/mL
[1]; with Example 15 at 4 μg/ml
  MIC ATB combined with Example 15 @4 μgml: <0.031 µg/mL
[1]; with Example 16 at 4 μg/ml
  MIC ATB combined with Example 16 @4 μg/ml: <0.031 µg/mL
[1]; Escherichia coli, antibiotic alone, read-out: MIC ATB alone
  MIC: 8 µg/mL
[2]; [7]
  MIC: 16 µg/mL
[2]; with Example 1 @8 μg/ml
  MIC ATB combined with Example 1 @8 μg/ml: 16 µg/mL
[2]; with Example 1 at 8 μg/ml
  MIC ATB combined with Example 1 @8 μg/ml: 16 µg/mL
[2]; with Example 7 at 8 μg/ml
  MIC ATB combined with Example 7 @8 μgml: 2 µg/mL
[2]; with Example 9 @4 μg/ml
  MIC ATB combined with Example 9 @4 μg/ml: <0.031 µg/mL
[2]; with Example 9 at 4 μg/ml
  MIC ATB combined with Example 9 @4 μg/ml: <0.031 µg/mL
[2]; with Example 11 at 8 μg/ml
  MIC ATB combined with Example 11 @8 μg/ml: <0.031 µg/mL
[2]; with Example 12 at 8 μg/ml
  MIC ATB combined with Example 12 @8 μg/ml: <0.031 µg/mL
[2]; with Example 13 at 8 μg/ml
  MIC ATB combined with Example 13 @8 μg/ml: 4 µg/mL
[2]; with Example 14 at 8 μg/ml
  MIC ATB combined with Example 14 @8 μg/ml: <0.031 µg/mL
[2]; with Example 15 at 4 μg/ml
  MIC ATB combined with Example 15 @4 μgml: <=0.031 μg/mL
[2]; with Example 16 at 4 μg/ml
  MIC ATB combined with Example 16 @4 μg/ml: <0.031 µg/mL
[3]; with Example 1 @8 μg/ml
  MIC ATB combined with Example 1 @8 μg/ml: 0.25 µg/mL
[3]; with Example 1 at 8 μg/ml
  MIC ATB combined with Example 1 @8 μg/ml: 0.25 µg/mL
[3]; with Example 7 at 8 μg/ml
  MIC ATB combined with Example 7 @8 μgml: 0.125 µg/mL
[3]; with Example 9 @4 μg/ml
  MIC ATB combined with Example 9 @4 μg/ml: <0.031 µg/mL
[3]; with Example 9 at 4 μg/ml
  MIC ATB combined with Example 9 @4 μg/ml: <0.031 µg/mL
[3]; with Example 11 at 8 μg/ml
  MIC ATB combined with Example 11 @8 μg/ml: <0.031 µg/mL
[3]; with Example 12 at 8 μg/ml
  MIC ATB combined with Example 12 @8 μg/ml: <0.031 µg/mL
[3]; with Example 13 at 8 μg/ml
  MIC ATB combined with Example 13 @8 μg/ml: 0.25 µg/mL
[3]; with Example 14 at 8 μg/ml
  MIC ATB combined with Example 14 @8 μg/ml: <0.031 µg/mL
[3]; with Example 15 at 4 μg/ml
  MIC ATB combined with Example 15 @4 μgml: <=0.031 μg/mL
[3]; with Example 16 at 4 μg/ml
  MIC ATB combined with Example 16 @4 μg/ml: <0.031 µg/mL
[3]; Klebsiella pneumoniae, BAA1898, antibiotic alone, read-out: MIC ATB alone
  MIC: 1 µg/mL
[4]; with Example 1 @8 μg/ml
  MIC ATB combined with Example 1 @8 μg/ml: >32 µg/mL
[4]; with Example 1 at 8 μg/ml
  MIC ATB combined with Example 1 @8 μg/ml: >32 µg/mL
[4]; with Example 7 at 8 μg/ml
  MIC ATB combined with Example 7 @8 μgml: >32 µg/mL
[4]; with Example 9 @4 μg/ml
  MIC ATB combined with Example 9 @4 μg/ml: >32 µg/mL
[4]; with Example 9 at 4 μg/ml
  MIC ATB combined with Example 9 @4 μg/ml: >32 µg/mL
[4]; with Example 11 at 8 μg/ml
  MIC ATB combined with Example 11 @8 μg/ml: 0.25 µg/mL
[4]; with Example 12 at 8 μg/ml
  MIC ATB combined with Example 12 @8 μg/ml: <0.031 µg/mL
[4]; with Example 13 at 8 μg/ml
  MIC ATB combined with Example 13 @8 μg/ml: >32 µg/mL
[4]; with Example 14 at 8 μg/ml
  MIC ATB combined with Example 14 @8 μg/ml: <0.031 µg/mL
[4]; with Example 15 at 4 μg/ml
  MIC ATB combined with Example 15 @4 μgml: >32 µg/mL
[4]; with Example 16 at 4 μg/ml
  MIC ATB combined with Example 16 @4 μg/ml: <0.031 µg/mL
[4]; [7]
  MIC: > 32 µg/mL
[5]; with Example 1 @8 μg/ml
  MIC ATB combined with Example 1 @8 μg/ml: 4 µg/mL
[5]; with Example 1 at 8 μg/ml
  MIC ATB combined with Example 1 @8 μg/ml: 4 µg/mL
[5]; with Example 7 at 8 μg/ml
  MIC ATB combined with Example 7 @8 μgml: 2 µg/mL
[5]; with Example 9 @4 μg/ml
  MIC ATB combined with Example 9 @4 μg/ml: <0.031 µg/mL
[5]; with Example 9 at 4 μg/ml
  MIC ATB combined with Example 9 @4 μg/ml: <0.031 µg/mL
[5]; with Example 11 at 8 μg/ml
  MIC ATB combined with Example 11 @8 μg/ml: <0.031 µg/mL
[5]; with Example 12 at 8 μg/ml
  MIC ATB combined with Example 12 @8 μg/ml: <0.031 µg/mL
[5]; with Example 13 at 8 μg/ml
  MIC ATB combined with Example 13 @8 μg/ml: 4 µg/mL
[5]; with Example 14 at 8 μg/ml
  MIC ATB combined with Example 14 @8 μg/ml: <0.031 µg/mL
[5]; with Example 15 at 4 μg/ml
  MIC ATB combined with Example 15 @4 μgml: <0.031 µg/mL
[5]; with Example 16 at 4 μg/ml
  MIC ATB combined with Example 16 @4 μg/ml: <0.031 µg/mL
[5]; Staphylococcus aureus, antibiotic alone, read-out: MIC ATB alone
  MIC: 2 µg/mL
[6]; with Example 1 @8 μg/ml
  MIC ATB combined with Example 1 @8 μg/ml: 32 µg/mL
[6]; with Example 1 at 8 μg/ml
  MIC ATB combined with Example 1 @8 μg/ml: 32 µg/mL
[6]; with Example 7 at 8 μg/ml
  MIC ATB combined with Example 7 @8 μgml: >32 µg/mL
[6]; with Example 9 @4 μg/ml
  MIC ATB combined with Example 9 @4 μg/ml: <0.031 µg/mL
[6]; with Example 9 at 4 μg/ml
  MIC ATB combined with Example 9 @4 μg/ml: <0.031 µg/mL
[6]; with Example 11 at 8 μg/ml
  MIC ATB combined with Example 11 @8 μg/ml: 32 µg/mL
[6]; with Example 12 at 8 μg/ml
  MIC ATB combined with Example 12 @8 μg/ml: 4 µg/mL
[6]; with Example 13 at 8 μg/ml
  MIC ATB combined with Example 13 @8 μg/ml: >32 µg/mL
[6]; with Example 14 at 8 μg/ml
  MIC ATB combined with Example 14 @8 μg/ml: 4 µg/mL
[6]; with Example 15 at 4 μg/ml
  MIC ATB combined with Example 15 @4 μgml: 32 µg/mL
[6]; with Example 16 at 4 μg/ml
  MIC ATB combined with Example 16 @4 μg/ml: 16 µg/mL
[6]; Streptococcus pneumoniae, antibiotic alone, read-out: MIC ATB alone
  MIC: 32 µg/mL
